“Also recorded” adds a separate entry of the source. *1 amine or outer side, *2 acyl side, *3 side chain or, on linkers, in order; H or OH if unused. Where a SMILES comes first, the peptide text is derived from it. Bridges are numbered along the chain shown (N, C = ends). Roman numbers before positions name the chains, in order. [ ]: non-standard residue; d: D form. Actinocin(9to1) = Cc1c2oc3c(C)ccc(C(=O)[*:1])c3nc-2c(C(=O)[*:2])c(N)c1=O; NMeV = CN[C@H](C(=O)O)C(C)C; Sar = CNCC(=O)O
Columns and labels:
Assay type in all cases: cell-based, Human
Caki-1 = test: CCK-8 cell viability assay of drug-treated Caki-1; details: 24 h, vs DMSO control
Procedure: Cell culture 1: Human clear cell renal cell carcinoma (ccRCC) cell line Caki-1 was obtained from the Karolinska Institute of Environmental Medicine, Stockholm, Sweden, derived from a ccRCC patient. The cells were cultured in RPMI 1640 medium with 10% fetal bovine serum (FBS) and 1% penicillin/streptomycin. The cells were cultivated at 37° C. in a humidified incubator with 5% CO2. TG-101209, NVP-TAE684, MK-0752, actinomycin-d, and panobinostat were purchased from Selleckchem ([…], […], […], […], […], Selleckchem, Houston, TX, USA), and withaferin-a was purchased from Sigma (W4394, Sigma-Aldrich, Saint Louis, MO, USA). These drugs were dissolved in DMSO. The cells (from cell culture 1) were seeded in a 96-well plate at 20×10^3 cells per well. After seeding for 24 h, the cells were treated for 24 h with the target drugs: TG-101209 (6 nM), NVP-TAE684 (3 nM), MK-0752 (5 nM), withaferin-a (4 uM), actinomycin-d (0.3 nM), and panobinostat (5 nM). The cells in the negative control group were only treated by DMSO for one day. Cell proliferation was detected by Cell Counting Kit-8 (CCK-8) assay. The 10 μl of CCK-8 reagent (1:10) was added to each well of 96-well plate with siRNA transfected cells or drug-treated cells by manufacturer's instruction. The 96-well plate was incubated at 37° C. for 2 hours and then measured absorbance at 450 nm using a microplate reader (Hidex Sense Beta Plus).

RRM2 = test: Western blot, RRM2 protein level in Caki-1 treated with repurposed drugs; details: 24 h, vs DMSO control
Procedure: (§1) Cell culture 1: Human clear cell renal cell carcinoma (ccRCC) cell line Caki-1 was obtained from the Karolinska Institute of Environmental Medicine, Stockholm, Sweden, derived from a ccRCC patient. The cells were cultured in RPMI 1640 medium with 10% fetal bovine serum (FBS) and 1% penicillin/streptomycin. The cells were cultivated at 37° C. in a humidified incubator with 5% CO2. TG-101209, NVP-TAE684, MK-0752, actinomycin-d, and panobinostat were purchased from Selleckchem ([…], […], […], […], […], Selleckchem, Houston, TX, USA), and withaferin-a was purchased from Sigma (W4394, Sigma-Aldrich, Saint Louis, MO, USA). These drugs were dissolved in DMSO. The cells (from cell culture 1) were seeded in a 96-well plate at 20×10^3 cells per well. After seeding for 24 h, the cells were treated for 24 h with the target drugs: TG-101209 (6 nM), NVP-TAE684 (3 nM), MK-0752 (5 nM), withaferin-a (4 uM), actinomycin-d (0.3 nM), and panobinostat (5 nM). The cells in the negative control group were only treated by DMSO for one day. The cells were washed with phosphate-buffered saline (PBS) and lysed with CelLytic M ([…], Sigma-Aldrich, Saint Louis, MO, USA) lysis buffer containing protease inhibitors. The lysates were centrifuged at 12 000 rpm for 5 min, and the supernatant was collected. The proteins were separated by Mini-PROTEAN® TGXTM Precast Gels (BioRad, Berkeley, CA, USA) and transferred to a Trans-Blot Turbo Mini 0.2 um PVDF Transfer Packs membrane (BioRad, Berkeley, CA, USA) by using Trans-Blot® TurboTM Transfer System (Bio-Rad, Berkeley, CA, USA). The antibodies for BUB1B (HPA008419), RRM2 (HPA056994), CEP55 (HPA023430), ASF1B(HPA069385), CCNB2 (HPA008873), and GAPDH (sc47724, Santa Cruz Biotechnology, Inc.) were used for primary immunoblotting. All the antibodies were diluted at 1:10000 concentration. The membranes were incubated in primary antibody solution overnight at 4° C. with gentle rocking. […] The protein bands were detected with ImageQuanattm LAS 500 (29-0050-63, GE) automatic exposure procedure or 6 min exposure.

BUB1B [1] = test: Western blot, BUB1B protein level in Caki-1 treated with repurposed drug; details: Caki-1, 6 nM, 24 h, compared to negative control (DMSO)
Procedure: as §1, with “inhibitors.” for “inhibitors. The lysates were centrifuged at 12 000 rpm for 5 min, and the supernatant was collected. The proteins were separated by Mini-PROTEAN® TGXTM Precast Gels (BioRad, Berkeley, CA, USA) and transferred to a Trans-Blot Turbo Mini 0.2 um PVDF Transfer Packs membrane (BioRad, Berkeley, CA, USA) by using Trans-Blot® TurboTM Transfer System (Bio-Rad, Berkeley, CA, USA). The antibodies for BUB1B (HPA008419), RRM2 (HPA056994), CEP55 (HPA023430), ASF1B(HPA069385), CCNB2 (HPA008873), and GAPDH (sc47724, Santa Cruz Biotechnology, Inc.) were used for primary immunoblotting. All the antibodies were diluted at 1:10000 concentration. The membranes were incubated in primary antibody solution overnight at 4° C. with gentle rocking.”

Caki-1 cells = test: MTT cell viability assay of Caki-1 treated with TG-101209 and its alternatives
Procedure: (§2) Cell culture 2: Caki-1 was purchased from CLS Cell Lines Service (Germany). The cells were maintained in McCoy's SA (modified) medium (16600082, Thermo Fisher Scientific, USA) and supplemented with 10% fetal bovine serum (FBS, F7524, Sigma-Aldrich), 1% Penicillin/Streptomycin (P4333, Sigma-Aldrich).
The cytotoxic effects of the TG-101209 and its alternatives on the Caki-1 cells were tested by MTT (Thiazolyl Blue Tetrazolium Bromide) method. 1.5×10^4 cells were seeded per well in a 96-well plate in 100 μL growth media. […] After the incubation period, 5 mg/ml MTT (M2128, Sigma-Aldrich) solution in PBS (10 μL) was added to each well. After 1 hour, the MTT solution and all media were removed from the wells. 100 μl of DMSO was added and mixed to dissolve the formazan crystals. Cell viability was analysed by measuring the absorbance of the dissolved formazan at a wavelength of 570 nm with a microplate reader (Hidex Sense Beta Plus).

BUB1B [2] = test: Western blot, BUB1B expression in Caki-1 treated with TG-101209 alternatives; details: Caki-1, 5 μM of target drug, 1 day (FIG. 41; method says 2 days)
Procedure: as §2
The target drugs developed as alternatives to TG-101209, were dissolved in 0.1% DMSO (41639, Sigma-Aldrich). Caki-1 cells from cell culture 2 were seeded in a 6-well plate at 3×10^5 cells per well. […]
The cells were washed with PBS solution and then lysed with CelLytic M (C2978, Sigma-Aldrich) lysis buffer containing protease inhibitors (11836170001, Roche). The cell lysates were centrifuged at 12 000 rpm for 10 min and supernatants were collected. Protein Assay Dye Reagent (5000006, Bio-Rad) was used for the determination of protein concentration. The absorbance of the proteins was measured spectrophotometrically at 595 nm by a microplate reader (Hidex Sense Beta Plus). Protein electrophoresis was performed using Mini-PROTEAN® TGX™ Precast Gels (4561086, Bio-Rad) and then the separated proteins were transferred to a Trans-Blot Turbo Mini 0.2 um PVDF Transfer Packs membrane (1704158, Bio-Rad) by using Trans-Blot® Turbo™ Transfer System (Bio-Rad). The membrane was blocked with 5% skim milk for 30 min at 4° C. with gentle rocking. After blocking, the membrane was treated with primary antibodies: Anti-BUB1B (HPA008419, Human Protein Atlas, Sweden) and Anti-Beta actin (ab8227, Abcam) as a loading control overnight at 4° C. on a rocking platform. After the treatment of primary antibodies, the membrane was washed three times with TBS-T buffer (A09-7500-100, Medicago). Then, Goat anti-Rabbit IgG-HRP (ab205718, Abcam) was treated as the secondary antibody for 30 min at 4° C. with gentle rocking.

CC1=C(CO)C(=O)O[C@@H]([C@@H](C)[C@H]2CC[C@H]3[C@@H]4C[C@H]5O[C@]56[C@@H](O)C=CC(=O)[C@]6(C)[C@H]4CC[C@]23C)C1 [withaferin-a]
cell viability (Caki-1; Caki-1, CCK-8, 4 uM): significantly reduced
protein level of RRM2 (RRM2; Caki-1, 4 uM): significantly suppressed

COc1cc(N2CCC(N3CCN(C)CC3)CC2)ccc1Nc1ncc(Cl)c(Nc2ccccc2S(=O)(=O)C(C)C)n1 [NVP-TAE684]
cell viability (Caki-1; Caki-1, CCK-8, 3 nM): significantly reduced
protein level of RRM2 (RRM2; Caki-1, 3 nM): significantly suppressed

Cc1c2oc3c(C)ccc(C(=O)N[C@@H]4C(=O)N[C@H](C(C)C)C(=O)N5CCC[C@H]5C(=O)N(C)CC(=O)N(C)[C@@H](C(C)C)C(=O)O[C@@H]4C)c3nc-2c(C(=O)N[C@@H]2C(=O)N[C@H](C(C)C)C(=O)N3CCC[C@H]3C(=O)N(C)CC(=O)N(C)[C@@H](C(C)C)C(=O)O[C@@H]2C)c(N)c1=O [actinomycin-d] (I: T[dV]P[Sar][NMeV] / II: T[dV]P[Sar][NMeV]; ester I:1-I:C, II:1-II:C; linker I:N-II:N via Actinocin(9to1))
protein level of RRM2 (RRM2; Caki-1, 0.3 nM): does not work for inhibiting RRM2

Cc1cnc(Nc2ccc(N3CCN(C)CC3)cc2)nc1Nc1cccc(S(=O)(=O)NC(C)(C)C)c1 [TG-101209, reference compound]
protein level of BUB1B (BUB1B [1]): significantly decreased; also recorded: significantly reduced
cell viability (MTT assay) (Caki-1 cells; Caki-1, 10 μM, 1 day): most profound effect on the cell viability
IC50 (Caki-1 cells; FIG. 43, assay not named, presumably Caki-1 cell viability): ~3000 nM
Ranking, Cell viability (%) (Caki-1 cells; top five target drugs, MTT assay, 10 μM, 1 day, rank 1 = greatest reduction): 5
cell viability (Caki-1; Caki-1, CCK-8, 6 nM): significantly reduced
expression levels of BUB1B (BUB1B [2]): significantly lower the expression levels of BUB1B
